The results in this text go back to patent US11555012B2 (Nimbus Artemis, Inc., priority 2018, dated 2023).

SMILES strings stand for the structures. Bounds are passed on as bounds.

In the assay the target is ACL (Homo sapiens (Human), UniProt P53396). Kind of assay: ADP-Glo Assay. A general note: ADP-Glo first removes unused ATP, then detects ADP through luciferase.
Chain of ACL (P53396 other isoform, or with tags, fused parts or gaps isoform P53396-2): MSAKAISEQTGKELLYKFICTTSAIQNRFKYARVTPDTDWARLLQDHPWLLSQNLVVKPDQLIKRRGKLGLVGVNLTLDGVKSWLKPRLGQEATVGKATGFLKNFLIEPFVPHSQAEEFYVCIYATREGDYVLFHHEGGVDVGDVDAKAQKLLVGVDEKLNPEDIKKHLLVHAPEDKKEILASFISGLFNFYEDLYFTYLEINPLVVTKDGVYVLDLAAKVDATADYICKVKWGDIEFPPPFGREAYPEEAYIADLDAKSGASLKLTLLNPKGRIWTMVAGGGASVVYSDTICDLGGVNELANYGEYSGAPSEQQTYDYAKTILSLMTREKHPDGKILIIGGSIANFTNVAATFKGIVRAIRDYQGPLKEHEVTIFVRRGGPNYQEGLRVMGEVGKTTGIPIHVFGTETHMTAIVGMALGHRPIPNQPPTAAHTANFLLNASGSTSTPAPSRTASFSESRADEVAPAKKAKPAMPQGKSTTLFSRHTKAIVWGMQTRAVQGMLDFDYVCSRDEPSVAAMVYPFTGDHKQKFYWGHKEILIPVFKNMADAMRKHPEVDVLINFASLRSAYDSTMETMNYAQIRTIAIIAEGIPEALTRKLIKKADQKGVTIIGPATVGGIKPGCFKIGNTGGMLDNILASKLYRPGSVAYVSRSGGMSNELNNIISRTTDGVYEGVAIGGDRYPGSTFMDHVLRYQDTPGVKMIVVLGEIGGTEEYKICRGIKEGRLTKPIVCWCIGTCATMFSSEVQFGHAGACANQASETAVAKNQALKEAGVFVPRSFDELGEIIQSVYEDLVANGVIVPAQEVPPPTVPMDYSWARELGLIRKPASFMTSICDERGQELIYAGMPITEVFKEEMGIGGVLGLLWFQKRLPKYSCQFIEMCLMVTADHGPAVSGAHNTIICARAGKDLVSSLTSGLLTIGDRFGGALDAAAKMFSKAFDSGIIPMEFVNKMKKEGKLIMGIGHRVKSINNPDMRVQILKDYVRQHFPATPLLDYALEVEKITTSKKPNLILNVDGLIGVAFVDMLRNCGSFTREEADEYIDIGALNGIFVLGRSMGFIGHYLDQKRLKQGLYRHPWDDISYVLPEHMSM
With `COc1cccc(-c2ccccc2)c1NS(=O)(=O)c1cc(Cl)cc(Cl)c1O` [I-14, 3,5-dichloro-2-hydroxy-N-(3-methoxy-[1,1′-biphenyl]-2-yl)benzenesulfonamide], the IC50 was 0.5 to 20 µM. With `O=C(COc1c(Cl)cc(Cl)cc1S(=O)(=O)Nc1cc(-c2ccccc2)ccc1F)N1CCC1` [I-153, 2-(2-(azetidin-1-yl)-2-oxoethoxy)-3,5-dichloro-N-(4-fluoro-[1,1′-biphenyl]-3-yl)benzenesulfonamide], the IC50 was in the range of 0.5 to 20 µM.

Compound `COc1ccc(-c2ccccc2)cc1NS(=O)(=O)c1cc(C(=O)N2CCNCC2)cc(Cl)c1O` [I-277, 3-chloro-2-hydroxy-N-[4-methoxy-[1,1-biphenyl]-3-yl]-5-(piperazine-1-carbonyl)benzene-1-sulfonamide] registered an IC50 of 0.5 to 20 µM. Consider `O=C(O)c1cc(Cl)c(O)c(S(=O)(=O)Nc2cc(-c3cc4ccccc4s3)c(F)cc2F)c1` [I-507, 3-(N-(5-(benzo[b]thiophen-2-yl)-2,4-difluorophenyl)sulfamoyl)-5-chloro-4-hydroxybenzoic Acid], for which the IC50 lay within 0.05 to 0.5 µM. With `O=C(O)CCc1cc(Cl)c(O)c(S(=O)(=O)Nc2cc(F)cc(F)c2)c1` [I-399, 3-(3-chloro-5-(N-(3,5-difluorophenyl)sulfamoyl)-4-hydroxyphenyl) Propanoic Acid], the IC50 is more than 20 µM.

For the compound `COc1ccc(C(=O)O)cc1S(=O)(=O)Nc1cc(-c2ccccc2)c(F)cc1F` [I-529, 3-(N-(4,6-difluoro-[1,1′-biphenyl]-3-yl)sulfamoyl)-4-methoxybenzoic acid], the IC50 was more than 20 µM. On to `COc1c(Cl)cc(C(=O)O)cc1S(=O)(=O)Nc1cc(-c2ccccc2)ccc1F` [I-70, 3-chloro-5-([4-fluoro-[1,1-biphenyl]-3-yl]sulfamoyl)-4-methoxybenzoic Acid], for which the IC50 was 0.5 to 20 µM.

Consider `O=C(Nc1cc(-c2ccccc2)c(F)cc1F)c1cc(C(=O)N2CCCC2)cc(Cl)c1O` [I-150, 3-chloro-N-(4,6-difluoro-[1,1′-biphenyl]-3-yl)-2-hydroxy-5-(pyrrolidine-1-carbonyl)benzamide], for which the IC50 lay within 0.5 to 20 µM. In the case of `O=C(O)c1cc(-c2ccccc2)ccc1NS(=O)(=O)c1cc(Cl)cc(Cl)c1` [I-278, 4-((3,5-dichlorophenyl)sulfonamido)-[1,1′-biphenyl]-3-carboxylic acid] it was 0.5 to 20 µM; in that of `O=S(=O)(Nc1ccc(OCc2ccccc2)cc1)c1cc(Cl)cc(Cl)c1O` [I-171], 0.5 to 20 µM. Turning to `O=C(c1cc(Cl)c(O)c(SCc2cc(-c3ccccc3)c(F)cc2F)c1)N1CCCC1` [I-205, (3-chloro-5-(((4,6-difluoro-[1,1′-biphenyl]-3-yl)methyl)thio)-4-hydroxyphenyl)(pyrrolidin-1-yl)methanone], the IC50 is 0.5 to 20 µM. In the case of `O=S(=O)(Nc1cc(-c2ccccc2)c(F)cc1F)c1ccccc1O` [I-230, N-[4,6-difluoro-[1,1-biphenyl]-3-yl]-2-hydroxybenzene-1-sulfonamide] it was 0.5 to 20 µM. In the case of `O=S(=O)(Nc1cccc(-n2nccn2)c1)c1cc(Cl)cc(Cl)c1O` [I-177] it was 0.5 to 20 µM; in that of `O=C(O)c1c(NS(=O)(=O)c2cc(Cl)cc(Cl)c2)sc2c1CCC2` [I-341, 2-((3,5-dichlorophenyl)sulfonamido)-5,6-dihydro-4H-cyclopenta[b]thiophene-3-carboxylic acid], 0.5 to 20 µM; in that of `COc1ccc(-c2ccccc2)cc1NS(=O)(=O)c1cc(Cl)cc(C(=O)O)c1OC` [I-430, 5-chloro-2-methoxy-3-(N-(4-methoxy-[1,1′-biphenyl]-3-yl)sulfamoyl)benzoic Acid], more than 20 µM. The compound `COC(=O)c1cc(Cl)c(OC)c(S(=O)(=O)Nc2cc(-c3cccs3)ccc2F)c1` [I-52, Methyl 3-chloro-5-(N-(2-fluoro-5-(thiophen-2-yl)phenyl)sulfamoyl)-4-methoxybenzoate] had an IC50 of 0.5 to 20 µM. As for `Cc1cccc(CS(=O)(=O)Nc2cc(-c3ccccc3)ccc2C(=O)O)c1` [I-310, 3-((m-tolylmethyl)sulfonamido)-[1,1′-biphenyl]-4-carboxylic acid], the IC50 lay within 0.5 to 20 µM.

Broadly, the IC50 is the point on the concentration scale where inhibition reaches its midpoint. A high value points to weaker potency in that assay.
